These are literature values, as cited in patent US20070203078A1, “METHOD FOR THE TREATMENT AND DIAGNOSIS OF CERTAIN PSYCHIATRIC DISORDERS RELATED TO THE MENSTRUAL CYCLE” (THE REGENTS OF THE UNIVERSITY OF CALIFORNIA, priority 2004, published 2007).

For the series, the target named is T1, δ subunit-containing GABAARs (Mus musculus, UniProt P22933).
T1 construct: tonic conductance mediated by δ subunit-containing GABAARs in several classes of neurons; host or cells: neurons (cerebellar granule cells, dentate gyrus granule cells and interneurons are named)
T1 sequence (P22933 25-449): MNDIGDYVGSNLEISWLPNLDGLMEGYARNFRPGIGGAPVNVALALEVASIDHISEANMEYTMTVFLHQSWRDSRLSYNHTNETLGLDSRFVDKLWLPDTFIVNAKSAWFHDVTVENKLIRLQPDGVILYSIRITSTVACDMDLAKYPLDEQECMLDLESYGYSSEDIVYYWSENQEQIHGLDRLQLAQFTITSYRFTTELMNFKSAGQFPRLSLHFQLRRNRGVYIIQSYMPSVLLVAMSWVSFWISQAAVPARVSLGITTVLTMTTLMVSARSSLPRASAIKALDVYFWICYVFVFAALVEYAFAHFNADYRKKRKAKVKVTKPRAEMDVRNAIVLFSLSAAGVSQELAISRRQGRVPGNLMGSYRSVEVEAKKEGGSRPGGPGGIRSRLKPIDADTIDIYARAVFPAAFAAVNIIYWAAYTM
The settings on record: THDOC in the physiological range (10 nM).

For the compound `C[C@]12CC[C@@H](O)C[C@H]1CC[C@@H]1[C@@H]2CC[C@]2(C)[C@@H](C(=O)CO)CC[C@@H]12` [THDOC], the “effect on synaptic currents” value was “no effect”. Also, for the setting “several classes of neurons”, the “effect on tonic conductance mediated by δ subunit-containing GABAARs” value is reported as “significantly potentiate”.
